Test results reported in US7943340B2, “Fungal dipeptidyl peptidase IV (DPPIV) enzyme for reagent use” (priority 2003, dated 2011).

Key:
[1] = tested on: fuLAP2; assay type: biochemical, Aspergillus fumigatus; conditions: inhibitor 40 μM; Leu-MCA substrate
Experimental: (§1) Inhibitors and metallic cations were pre-incubated with the enzymes for 15 min at 37° C. Then, Leu-AMC at a 5 mM final concentration was added. After further incubation for 60 min, enzyme activity was measured as described above. The inhibitors and their concentrations tested purified LAPs were: 500 μM amastatin (Bachem), 40 μM benzamidine (Sigma), 500 μM bestatin (Bachem), 5 mM/l mM EDTA (Sigma). 100 μM E-64 (L-trans-epoxysuccinyl-leu-4-guanidinobutylamide) (Bachem), 100 μM leupeptin (Sigma), 5 mM/1 mM ortho-phenanthroline (Sigma), 500 μM p-chloromercuribenzoic acid (Sigma), 100 μM pepstatin A (Sigma), 40 μM PMSF (Sigma), 20 μM TLCK (Roche Diagnostics), and 20 μM TPCK (Roche Diagnostics).

[2] = molecular target: T1, pkLAP (microsomal LAP from porcine kidney) (Sus scrofa, UniProt P15145); assay: Effect of chemical reagents (inhibitors, metallic cations) on LAP activity with Leu-AMC; assay type: biochemical; conditions: inhibitor 40 μM; Leu-MCA substrate
T1 construct: purchased Sigma; host or cells: porcine kidney
T1 sequence (P15145 1-963): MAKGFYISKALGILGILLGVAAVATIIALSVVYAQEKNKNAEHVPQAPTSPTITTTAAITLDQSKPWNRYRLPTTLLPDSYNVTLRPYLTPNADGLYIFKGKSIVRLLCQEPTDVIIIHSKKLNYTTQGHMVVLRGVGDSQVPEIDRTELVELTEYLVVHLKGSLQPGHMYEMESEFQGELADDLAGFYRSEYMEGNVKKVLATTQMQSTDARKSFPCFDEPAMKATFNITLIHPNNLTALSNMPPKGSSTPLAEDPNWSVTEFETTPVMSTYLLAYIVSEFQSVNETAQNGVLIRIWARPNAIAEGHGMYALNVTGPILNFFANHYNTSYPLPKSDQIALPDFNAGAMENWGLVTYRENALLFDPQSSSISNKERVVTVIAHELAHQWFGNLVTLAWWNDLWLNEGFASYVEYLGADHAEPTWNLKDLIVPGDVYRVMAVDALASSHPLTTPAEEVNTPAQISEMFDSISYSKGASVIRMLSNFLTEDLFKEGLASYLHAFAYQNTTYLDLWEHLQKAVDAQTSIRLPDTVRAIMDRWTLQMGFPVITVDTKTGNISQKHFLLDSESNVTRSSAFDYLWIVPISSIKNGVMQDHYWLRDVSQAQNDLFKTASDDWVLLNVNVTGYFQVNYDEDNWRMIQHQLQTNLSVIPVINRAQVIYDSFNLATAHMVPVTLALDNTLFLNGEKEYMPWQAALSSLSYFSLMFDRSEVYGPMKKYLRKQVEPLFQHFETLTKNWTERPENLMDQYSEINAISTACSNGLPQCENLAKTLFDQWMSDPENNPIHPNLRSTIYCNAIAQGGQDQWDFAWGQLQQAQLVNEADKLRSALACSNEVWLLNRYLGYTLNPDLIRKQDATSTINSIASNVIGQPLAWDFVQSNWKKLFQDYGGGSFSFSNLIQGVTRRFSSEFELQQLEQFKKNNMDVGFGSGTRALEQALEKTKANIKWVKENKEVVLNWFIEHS
Experimental: as §1

[3] = tested on: all the LAPs tested (ruLAP1, ruLAP2, fuLAP1, fuLAP2, pkLAP); assay type: biochemical; conditions: Leu-AMC 5 mM; amastatin 500 μM; ortho-phenantroline 1 and 5 mM; others as
How it was run: (§2)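 Purified LAPs pre-incubated 15 min at 37°C with inhibitors or metal cations, then Leu-AMC (5 mM final) added and activity measured after 60 min. Inhibitor levels: amastatin and bestatin 500 μM, EDTA and o-phenanthroline 5 or 1 mM, E-64, leupeptin and pepstatin A 100 μM, benzamidine and PMSF 40 μM, TLCK and TPCK 20 μM, pCMB 500 μM.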

[4] = molecular target: fuLAP1 (Aspergillus fumigatus, UniProt Q5VJG6); assay type: biochemical; conditions: inhibitor 40 μM; Leu-MCA substrate
How it was run: as §2

[5] = molecular target: ruLAP1 (Trichophyton rubrum, UniProt Q5QHG5); assay type: biochemical; conditions: inhibitor 40 μM; Leu-MCA substrate
How it was run: as §2

[6] = molecular target: ruLAP2 (Trichophyton rubrum, UniProt Q5QHG6); assay type: biochemical; conditions: inhibitor 40 μM; Leu-MCA substrate
How it was run: as §2

[7] = tested on: T. rubrum secreted proteolytic activity; assay: Inhibition of T. rubrum secreted proteolytic activity (resorufin-labeled casein); assay type: biochemical, Trichophyton rubrum; conditions: resorufin-labeled casein as substrate
Experimental: The proteolytic activity was measured using resorufin-labeled casein in phosphate buffer (20 mM; pH 7.4). The reaction mixture contained 0.02% substrate in a total volume of 0.5 ml. After incubation at 37° C., the undigested substrate was precipitated by trichloroacetic add (4% final concentration) and separated from the supernatant by centrifugation. The absorbance at 574 nm of the supernatant was measured after alkalinization by adding 500 μl Tris buffer (500 mM; pH 9.4). For practical purposes, one unit (U) of proteolytic activity was defined as that producing an absorbance of 0.001 per min.
T. rubrum was grown at 30° C. in a medium containing 0.2% soy protein as a sole carbon and nitrogen source. After 14 days of growth, a concomitant clarification of the culture medium was noted and a substantial proteolytic activity (400 U ml^−1) detected using resorufin-labeled casein as substrate. This proteolytic activity was 15% and 85% inhibited by PMSF and ortho-phenanthroline. respectively, attesting that serine and metalloproteases were secreted by T. rubrum. […] In addition, a high activity on substrates such as Leu-AMC and Leu-pNA was detected in the T. rubrum culture supernatant.

[8] = tested on: gliadin 14 mer PQPQLPYPQPQLPY; assay type: biochemical, wheat; conditions: 4 h, 37° C., 1 mM CoCl2, pH7.2
[9] = tested on: gliadin 33 mer; assay: Digestion of gliadin 33 mer (RP-HPLC, ESI-MS); assay type: biochemical, wheat; conditions: 37° C., 1 mM CoCl2, pH7.2
[10] = tested on: desMet-G-CSF; assay: Digestion of desMet-G-CSF with DPPIV; conditions: overnight 37° C., E/S 1/20 (w:w)
[11] = Enzymatic activity of T. rubrum AMPP at various pH values (FIG. 4); assay type: biochemical
From the text: FIG. 4 is a graph of the enzymatic activity of T. rubrum AMPP (aminopeptidase P) at various pH values. It appears that AMPP has activity over a broad range of pH values, from pH 6 to 11.

[12] = Enzymatic activity of T. rubrum AMPP at various temperatures (FIG. 5); assay type: biochemical
From the text: FIG. 5 is a graph of the enzymatic activity of T. rubrum AMPP at various temperatures.

Chain of ruLAP2 (Q5QHG6 22-495): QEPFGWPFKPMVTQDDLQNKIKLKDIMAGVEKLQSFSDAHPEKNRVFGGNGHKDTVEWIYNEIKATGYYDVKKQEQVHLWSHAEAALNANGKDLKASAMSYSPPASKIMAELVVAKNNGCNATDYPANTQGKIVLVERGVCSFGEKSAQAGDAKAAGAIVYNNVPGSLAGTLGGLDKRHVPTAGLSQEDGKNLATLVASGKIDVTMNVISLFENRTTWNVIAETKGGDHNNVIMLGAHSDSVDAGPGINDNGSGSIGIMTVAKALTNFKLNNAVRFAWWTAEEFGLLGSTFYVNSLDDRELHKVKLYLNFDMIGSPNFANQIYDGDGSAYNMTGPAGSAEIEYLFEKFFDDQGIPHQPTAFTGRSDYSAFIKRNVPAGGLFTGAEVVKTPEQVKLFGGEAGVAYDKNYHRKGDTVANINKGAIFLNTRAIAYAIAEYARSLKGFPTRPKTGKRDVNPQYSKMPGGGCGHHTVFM
Chain of ruLAP1 (Q5QHG5 19-373): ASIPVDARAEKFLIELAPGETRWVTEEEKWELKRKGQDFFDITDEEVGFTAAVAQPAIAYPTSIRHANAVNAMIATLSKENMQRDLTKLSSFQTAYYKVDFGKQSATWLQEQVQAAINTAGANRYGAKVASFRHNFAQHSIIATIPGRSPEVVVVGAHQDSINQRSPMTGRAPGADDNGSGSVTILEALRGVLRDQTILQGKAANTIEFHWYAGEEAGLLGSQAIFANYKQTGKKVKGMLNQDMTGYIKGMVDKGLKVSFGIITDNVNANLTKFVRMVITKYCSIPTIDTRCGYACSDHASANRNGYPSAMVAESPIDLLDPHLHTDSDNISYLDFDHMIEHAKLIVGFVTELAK
Chain of fuLAP1 (Q5VJG6 15-388, looked up, natural form): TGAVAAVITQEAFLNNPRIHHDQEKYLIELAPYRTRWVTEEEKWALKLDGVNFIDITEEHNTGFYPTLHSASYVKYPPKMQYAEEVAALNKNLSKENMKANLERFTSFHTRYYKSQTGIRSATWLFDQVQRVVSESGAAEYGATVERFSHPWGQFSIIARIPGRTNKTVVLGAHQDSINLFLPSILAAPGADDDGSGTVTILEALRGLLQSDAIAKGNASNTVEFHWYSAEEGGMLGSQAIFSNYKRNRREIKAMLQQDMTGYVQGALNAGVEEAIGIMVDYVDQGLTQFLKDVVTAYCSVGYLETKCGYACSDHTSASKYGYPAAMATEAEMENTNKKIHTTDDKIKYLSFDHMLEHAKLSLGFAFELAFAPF

O=S(=O)(F)Cc1ccccc1 [PMSF]
fuLAP2 hydrolytic activity, percentage of control without inhibitor [1]: 84% | pkLAP hydrolytic activity, percentage of control without inhibitor [2]: 58% | effect of inhibitor on all the LAPs tested [3]: no clear inhibitory effects | fuLAP1 hydrolytic activity, percentage of control without inhibitor [4]: 156% | ruLAP1 hydrolytic activity, percentage of control without inhibitor [5]: 78% | ruLAP2 hydrolytic activity, percentage of control without inhibitor [6]: 79% | inhibition of proteolytic activity [7]: 15%

ruDPPIV: T. rubrum dipeptidylpeptidase IV, 775 amino acid residues (SEQ ID NO: 35)
digestion of the 14 mer [8]: not able to hydrolyse the peptide | digestion of the 33 mer [9]: not a substrate | cleavage of N-terminal dipeptide from desMet-G-CSF [10]: Traces of undigested material are still present

B1: AMPP: T. rubrum aminopeptidase P (SEQ ID NO: 24) (protein, listed as Trichophyton rubrum)
chain: MPPPPVDTTQRLAKLRELMAQNKVDVYIVPSEDSHQSEYIAPCDGRRAFISSFTGSAGCAIVSMSKAALSTDGRYFSQAAKQLDANWILLKRGVEGVPTWEEWTAEQAETRQGCGSDARKLSQTLKTTGGSLVGIDQNLIDAVWGDERPARPANQITVQPVERAGKSFEEKVEDLRKELTAKKRSAMVISSKFLYKWYLSLYTKSHADWCSIPYNPVFFSYAIVTPSVAELYVDESKLSPEARKHLEGKVVLKPYESIFQASKVLAESKASASSGSSGKFLLSNKASWSLSLALGGEQNVVEVRSPITDAKAIKNEVELEGFRKCHIRDGAALIEYFAWLENALIKEGAKLDEVDGADKLFEIRKKYDLFVGNSFDTISSTGANGATIHYKPEKSTCAIIDPKAMYLCDSGGQYLDGTTDTTRTLHFGEPTEFQKKAYALVLKGHISIDNAIFPKGTTGYAIDSFARQHLWKEGLDYLHGTGHGVGSFLNVHEGPMGIGSRAQYAEVPLSASNSLDIMKTATSAFVSRVSSMTAYSSFFILTASLDLVICKEVQTAHKFGDKPFLGFESITLVPFCQKLLDASLLTEAERKWVNDYHAKVWEKTSPFFEKDELTTAWLKRETQPI
pH range of activity [11]: 6 to 11 pH | optimal temperature [12]: 50 C | temperature range of activity [12]: 25 to 60 C
